In patent publication US12350259B2, “Methods of treating migraine” (Allergan Pharmaceuticals International Limited, priority 2021, dated 2025):
Read-outs that look alike come from different tables or passages of the source.

Assays:
[1] = Atogepant-quinidine gluconate interaction study: safety; type: in vivo, human; conditions: during quinidine gluconate administration; 33 enrolled
Source text: Atogepant PK parameters calculated were peak plasma concentration (Cmax); time to Cmax (tmax); and area under plasma concentration—time curve from time 0 to time t (AUC0-t) and infinity (AUC0-∞). […] Safety assessments included clinical laboratory values, vital signs, electrocardiograms, and […] adverse events (TEAEs).

[2] = Atogepant-topiramate interaction study: safety and tolerability; type: in vivo, human
[3] = topiramate; cited from earlier work
[4] = Atogepant-topiramate interaction study, cohort 2: topiramate steady-state PK; type: in vivo, human; conditions: for AUC / Cmax: both sexes, human, plasma
Procedure: An open-label, single-center, multiple-dose 2-cohort, phase 1 trial was carried out to assess the potential of a PK DDI between atogepant and topiramate in healthy adult participants. Eligible participants were enrolled either in cohort 1 to evaluate the effect of topiramate 100 mg twice daily on the PK of atogepant […] once daily or in cohort 2 to evaluate the effect of atogepant 60 mg once daily on the PK of topiramate 100 mg twice daily. Participants in cohort 1 received atogepant alone on days 1-7 and atogepant plus topiramate on days 8-17. Participants in cohort 2 received topiramate alone on days 1-10 and topiramate plus atogepant on days 11-17.
The duration of the study was 25 days (±2 days), which included day −1 through the follow-up visit and excluded the screening period. The screening period was up to 21 days before day 1 and the intervention period was a total of 19 days, at which point the end of dosing visit was conducted. Cerebrospinal fluid (CSF) samples for measurement of atogepant concentration were collected via lumbar puncture in a subset of consenting participants in cohort 1. CSF samples were collected once from individual participants in the CSF collection subset at 2 or 6 hours after the morning dose on day 6 for cohort 1. Clinical laboratory tests were performed at the follow-up visit, which was conducted on day 24 (7 [±2] days after the last dose of study medication.
Participants were excluded if they had clinically significant abnormal electrocardiogram (ECG) results or QT prolongation (QTcF ≥450 msec for males, ≥470 for females), or any clinical condition or previous surgery that may affect the absorption, distribution, biotransformation, or excretion of atogepant or topiramate.
The primary endpoints were area under the plasma concentration-time curve during dosing interval at steady state (AUC0-tau,ss) and maximum plasma drug concentration at steady state (Cmax,ss) of atogepant and topiramate when coadministered and when administered alone. Additional PK parameters included time of maximum plasma drug concentration at steady state (Tmax,ss), average plasma drug concentration at steady state (Cavg,ss), and minimum plasma drug concentration at steady state (Cmin,ss) of topiramate and atogepant when coadministered and when administered alone.

[5] = Atogepant-itraconazole interaction study: safety and tolerability; type: in vivo, human; conditions: itraconazole alone
Source text: The primary objective of this study was to assess the effects of multiple dose itraconazole on the pharmacokinetics of a single dose of atogepant. The primary endpoints were PK parameters of atogepant derived from plasma concentrations. The secondary objectives of the study were to assess the safety and tolerability of atogepant and itraconazole given alone and in combination, and to establish the correlation between concentrations of atogepant in dried blood sample (DBS) (obtained via finger stick) and plasma. The secondary endpoints included AEs, clinical laboratory parameters, vital signs, ECG, and physical examination, and correlation of concentrations of atogepant in DBS and plasma. Subjects who satisfied the inclusion and exclusion criteria were assigned to a single fixed-treatment sequence in which they received Treatment A followed by Treatment B; there was a 7-day washout period between treatments. • Treatment A: Single oral 60 mg dose of atogepant (tablet) under fasted conditions on Day 1 • Treatment B • Days 8-14: Itraconazole 200 mg (tablet) orally once daily under fed conditions. • Day 15: Itraconazole 200 mg coadministered with atogepant 60 mg (tablet) under fasted conditions. • Days 16 to 17: Itraconazole 200 mg (tablet) once daily under fed conditions.

[6] = topiramate 100 mg BID + atogepant 60 mg QD, day 17
[7] = topiramate 100 mg BID alone, day 10
[8] = with atogepant coadministration

## C=C[C@H]1C[N@@]2CC[C@H]1C[C@@H]2[C@@H](O)c1ccnc2ccc(OC)cc12 [quinidine gluconate, reference compound]
[1]
  participants discontinued because of TEAEs (all electrocardiogram QT prolongation): 10

## CC1(C)O[C@@H]2[C@@H](CO[C@@]3(COS(N)(=O)=O)OC(C)(C)O[C@@H]23)O1 [topiramate]
[2]; cohort 2, topiramate + atogepant (n = 24)
  Deaths, %: (0) %
[2]; cohort 2, topiramate alone (n = 25)
  Deaths, %: (0) %
[2]; human, in vivo
  TEAEs leading to discontinuation, %: (8.0) %
  TESAEs, %: (0) %
  Treatment-related TEAEs, %: (52.0) %
  Treatment-related TESAEs, %: (0) %
  constipation reported: 2 participants
  nausea reported: 3 participants
[2]; human, in vivo, 10 days
  TEAEs, %: (64.0) %
[3]
  elimination half-life: approximately 21 hours
[4]; 100 mg, Topiramate Alone, read-out: AUC0-tau,ss Geometric LSM
  AUC: 74400 ng·h/mL
[4]; 100 mg, Topiramate Alone, read-out: Cmax,ss Geometric LSM
  Cmax: 7500 ng/mL
[4]; 100 mg, topiramate 100 mg BID alone, day 10, read-out: AUC0-tau,ss
  AUC: 76500 ng·h/mL
[4]; 100 mg, topiramate 100 mg BID alone, day 10, read-out: Cmax,ss
  Cmax: 7700 ng/mL
[4]; Topiramate and Atogepant, read-out: AUC0-tau,ss Geometric LSM
  AUC: 70300 ng·h/mL
[4]; Topiramate and Atogepant, read-out: Cmax,ss Geometric LSM
  Cmax: 7000 ng/mL
[4]; topiramate 100 mg BID + atogepant 60 mg QD, day 17, read-out: AUC0-tau,ss
  AUC: 72600 ng·h/mL
[4]; topiramate 100 mg BID + atogepant 60 mg QD, day 17, read-out: Cmax,ss
  Cmax: 7300 ng/mL
[4]; coadministered with atogepant
  delay of median Tmax,ss of topiramate: 0.5 h
[4]; [6]
  Cavg,ss: 6000 ng/mL
  Cmin,ss: 4700 ng/mL
  Tmax,ss (median): 2.0 h
[4]; [7]
  Cavg,ss: 6400 ng/mL
  Cmin,ss: 5200 ng/mL
  Tmax,ss (median): 1.5 h
[4]; [8]
  reduction of topiramate AUC0-tau,ss: 5%
  reduction of topiramate Cmax,ss: 6%

## CCC(C)n1ncn(-c2ccc(N3CCN(c4ccc(OCC5COC(Cn6cncn6)(c6ccc(Cl)cc6Cl)O5)cc4)CC3)cc2)c1=O (stereo not drawn) [itraconazole, reference compound]
[5]
  subjects experiencing constipation (TEAE): 1 subject
  subjects experiencing headache (TEAE): 2 subjects
